Measured values published in BindingDB's records for PubMed 9454810 (Sanofi Recherche, 1998).

Experiments:
[1] = target: P2Y purinoceptor 1 (Homo sapiens, UniProt P47900)
[2] = target: Peripheral-type benzodiazepine receptor-associated protein 1 (Homo sapiens, UniProt O95153)
[3] = target: Substance-P receptor (Homo sapiens, UniProt P25103)
[4] = target: 5-hydroxytryptamine receptor 2C (Homo sapiens, UniProt P28335)
[5] = target: Voltage-dependent N-type calcium channel subunit alpha-1B (Homo sapiens, UniProt Q00975)
[6] = target: Histamine H1 receptor (Homo sapiens, UniProt P35367)
[7] = target: Leukotriene B4 receptor 2 (Homo sapiens, UniProt Q9NPC1)
[8] = target: 5-hydroxytryptamine receptor 3A (Homo sapiens, UniProt P46098)
[9] = target: 5-hydroxytryptamine receptor 1B (Homo sapiens, UniProt P28222)
[10] = target: Muscarinic acetylcholine receptor M4 (Homo sapiens, UniProt P08173)
[11] = target: Gamma-aminobutyric acid receptor subunit alpha-1 (Homo sapiens, UniProt P14867)
[12] = target: Neuropeptide Y receptor type 2 (Homo sapiens, UniProt P49146)
[13] = target: Vasopressin V1b receptor (Homo sapiens, UniProt P47901)
[14] = target: D(1A) dopamine receptor (Homo sapiens, UniProt P21728)
[15] = target: Vasopressin V2 receptor (Homo sapiens, UniProt P30518)
[16] = target: Pro-thyrotropin-releasing hormone (Homo sapiens, UniProt P20396)
[17] = target: Type-1 angiotensin II receptor (Homo sapiens, UniProt P30556)
[18] = target: Alpha-1A adrenergic receptor (Homo sapiens, UniProt P35348)
[19] = target: VIP peptides (Homo sapiens, UniProt P01282)
[20] = target: Muscarinic acetylcholine receptor M2 (Homo sapiens, UniProt P08172)
[21] = target: Histamine H2 receptor (Homo sapiens, UniProt P25021)
[22] = target: Neurotensin/neuromedin N (Human, UniProt P30990)
[23] = target: Muscarinic acetylcholine receptor M1 (Homo sapiens, UniProt P11229)
[24] = target: Substance-K receptor (Homo sapiens, UniProt P21452)
[25] = target: B2 bradykinin receptor (Homo sapiens, UniProt P30411)
[26] = target: AP-4 complex subunit sigma-1 (Homo sapiens, UniProt Q9Y587)
[27] = target: Calcium-activated potassium channel subunit beta-1 (Homo sapiens, UniProt Q16558)
[28] = target: Adenosine receptor A2a (Homo sapiens, UniProt P29274)
[29] = target: Endothelin receptor type B (Homo sapiens, UniProt P24530)
[30] = target: Potassium voltage-gated channel subfamily A member 1 (Homo sapiens, UniProt Q09470)
[31] = target: Gastrin/cholecystokinin type B receptor (Homo sapiens, UniProt P32239)
[32] = target: Protein kinase C alpha type (Homo sapiens, UniProt P17252)
[33] = target: Thromboxane A2 receptor (Homo sapiens, UniProt P21731)
[34] = target: P2X purinoceptor 1 (Homo sapiens, UniProt P51575)
[35] = target: Beta-2 adrenergic receptor (Homo sapiens, UniProt P07550)
[36] = target: Histamine H3 receptor (Homo sapiens, UniProt Q9Y5N1)
[37] = target: Galanin peptides (Homo sapiens, UniProt P22466)
[38] = target: Neuronal acetylcholine receptor subunit alpha-3 (Homo sapiens, UniProt P32297)
[39] = target: 5-hydroxytryptamine receptor 1D (Homo sapiens, UniProt P28221)
[40] = target: Adenosine receptor A1 (Homo sapiens, UniProt P30542)

Measured: Ki

5-hydroxytryptamine receptor 1B, sequence (P28222 whole entry): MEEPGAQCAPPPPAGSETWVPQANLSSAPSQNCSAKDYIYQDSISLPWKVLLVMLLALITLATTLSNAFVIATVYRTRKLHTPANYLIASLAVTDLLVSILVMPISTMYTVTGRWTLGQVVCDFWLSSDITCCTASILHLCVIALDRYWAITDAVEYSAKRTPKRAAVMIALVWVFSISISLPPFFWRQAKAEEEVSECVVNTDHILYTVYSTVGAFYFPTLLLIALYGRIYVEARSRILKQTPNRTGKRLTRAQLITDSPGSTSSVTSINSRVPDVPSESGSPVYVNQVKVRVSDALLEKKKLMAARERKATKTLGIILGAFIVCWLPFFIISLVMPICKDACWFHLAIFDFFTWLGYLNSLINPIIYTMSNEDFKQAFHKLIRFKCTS
Histamine H3 receptor, sequence (Q9Y5N1 whole entry): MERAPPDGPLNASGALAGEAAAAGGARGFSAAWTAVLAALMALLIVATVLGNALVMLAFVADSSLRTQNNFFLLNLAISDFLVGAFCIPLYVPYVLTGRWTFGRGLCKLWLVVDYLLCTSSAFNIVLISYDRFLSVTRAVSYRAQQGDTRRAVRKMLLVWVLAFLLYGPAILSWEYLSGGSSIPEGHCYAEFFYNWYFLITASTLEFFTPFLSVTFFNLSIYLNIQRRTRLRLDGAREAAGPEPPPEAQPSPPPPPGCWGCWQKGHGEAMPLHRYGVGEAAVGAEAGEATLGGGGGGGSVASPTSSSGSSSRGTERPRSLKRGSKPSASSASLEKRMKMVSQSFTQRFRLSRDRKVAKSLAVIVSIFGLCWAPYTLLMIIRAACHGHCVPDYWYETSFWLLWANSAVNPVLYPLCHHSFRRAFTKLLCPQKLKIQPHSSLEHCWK
Substance-K receptor, sequence (P21452 whole entry): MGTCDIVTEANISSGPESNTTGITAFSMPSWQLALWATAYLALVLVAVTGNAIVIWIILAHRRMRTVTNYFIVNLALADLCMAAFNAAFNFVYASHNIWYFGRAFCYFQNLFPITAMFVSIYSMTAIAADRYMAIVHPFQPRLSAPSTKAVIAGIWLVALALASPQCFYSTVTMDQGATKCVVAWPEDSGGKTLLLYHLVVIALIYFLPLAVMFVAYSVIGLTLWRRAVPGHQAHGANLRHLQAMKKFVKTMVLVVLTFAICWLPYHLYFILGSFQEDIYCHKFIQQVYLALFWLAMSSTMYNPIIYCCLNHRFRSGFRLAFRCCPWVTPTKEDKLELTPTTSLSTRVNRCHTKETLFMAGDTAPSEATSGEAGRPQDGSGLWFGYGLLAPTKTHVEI
Gastrin/cholecystokinin type B receptor, sequence (P32239 whole entry): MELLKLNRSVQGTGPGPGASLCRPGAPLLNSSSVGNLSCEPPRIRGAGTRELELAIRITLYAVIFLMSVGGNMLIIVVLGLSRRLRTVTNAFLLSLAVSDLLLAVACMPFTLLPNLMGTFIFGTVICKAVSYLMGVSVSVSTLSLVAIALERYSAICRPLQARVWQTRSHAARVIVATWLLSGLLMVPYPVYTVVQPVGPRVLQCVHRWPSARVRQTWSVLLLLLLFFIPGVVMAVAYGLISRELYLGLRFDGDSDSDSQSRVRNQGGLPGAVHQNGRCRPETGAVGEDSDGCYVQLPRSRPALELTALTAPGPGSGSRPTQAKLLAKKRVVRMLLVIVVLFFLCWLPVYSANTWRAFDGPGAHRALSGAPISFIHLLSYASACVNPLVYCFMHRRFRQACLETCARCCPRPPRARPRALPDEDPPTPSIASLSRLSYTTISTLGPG
Endothelin receptor type B, sequence (P24530 whole entry): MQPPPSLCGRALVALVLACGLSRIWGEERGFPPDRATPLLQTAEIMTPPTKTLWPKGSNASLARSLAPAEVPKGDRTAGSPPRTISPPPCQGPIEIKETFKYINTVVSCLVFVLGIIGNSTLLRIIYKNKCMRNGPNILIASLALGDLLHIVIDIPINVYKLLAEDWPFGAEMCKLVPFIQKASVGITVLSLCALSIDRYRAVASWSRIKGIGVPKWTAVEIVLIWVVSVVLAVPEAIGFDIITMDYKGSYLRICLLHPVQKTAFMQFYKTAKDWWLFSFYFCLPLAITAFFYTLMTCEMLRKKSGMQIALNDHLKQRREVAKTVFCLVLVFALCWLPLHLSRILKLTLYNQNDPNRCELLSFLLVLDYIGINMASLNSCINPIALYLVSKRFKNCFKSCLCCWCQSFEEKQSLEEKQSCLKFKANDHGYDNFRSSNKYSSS
Beta-2 adrenergic receptor, sequence (P07550 whole entry): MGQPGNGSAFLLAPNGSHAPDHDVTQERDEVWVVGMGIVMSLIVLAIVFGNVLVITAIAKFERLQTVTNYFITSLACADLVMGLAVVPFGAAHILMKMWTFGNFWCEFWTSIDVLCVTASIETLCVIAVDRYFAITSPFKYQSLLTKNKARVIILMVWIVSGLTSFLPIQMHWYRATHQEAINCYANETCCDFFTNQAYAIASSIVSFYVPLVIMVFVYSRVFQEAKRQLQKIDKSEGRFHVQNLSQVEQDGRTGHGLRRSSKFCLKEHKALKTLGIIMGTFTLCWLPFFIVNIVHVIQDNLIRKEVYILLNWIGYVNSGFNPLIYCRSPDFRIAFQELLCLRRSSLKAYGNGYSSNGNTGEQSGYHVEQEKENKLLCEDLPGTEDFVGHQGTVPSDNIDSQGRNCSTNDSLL
Muscarinic acetylcholine receptor M1, sequence (P11229 whole entry): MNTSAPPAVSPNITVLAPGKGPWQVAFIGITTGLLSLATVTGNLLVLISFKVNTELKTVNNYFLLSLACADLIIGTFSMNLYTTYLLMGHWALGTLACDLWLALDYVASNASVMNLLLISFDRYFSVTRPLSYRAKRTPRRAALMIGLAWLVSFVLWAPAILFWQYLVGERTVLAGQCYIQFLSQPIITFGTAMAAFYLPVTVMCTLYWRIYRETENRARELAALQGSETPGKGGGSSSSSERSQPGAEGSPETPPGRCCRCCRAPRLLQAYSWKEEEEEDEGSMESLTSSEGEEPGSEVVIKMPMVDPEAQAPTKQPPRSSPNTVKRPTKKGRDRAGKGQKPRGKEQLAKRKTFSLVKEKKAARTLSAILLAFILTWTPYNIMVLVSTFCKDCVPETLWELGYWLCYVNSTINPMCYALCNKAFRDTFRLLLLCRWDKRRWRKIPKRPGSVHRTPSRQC
Galanin peptides, sequence (P22466 33-62 limits assumed): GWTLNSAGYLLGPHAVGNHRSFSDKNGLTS
Gamma-aminobutyric acid receptor subunit alpha-1, sequence (P14867 whole entry): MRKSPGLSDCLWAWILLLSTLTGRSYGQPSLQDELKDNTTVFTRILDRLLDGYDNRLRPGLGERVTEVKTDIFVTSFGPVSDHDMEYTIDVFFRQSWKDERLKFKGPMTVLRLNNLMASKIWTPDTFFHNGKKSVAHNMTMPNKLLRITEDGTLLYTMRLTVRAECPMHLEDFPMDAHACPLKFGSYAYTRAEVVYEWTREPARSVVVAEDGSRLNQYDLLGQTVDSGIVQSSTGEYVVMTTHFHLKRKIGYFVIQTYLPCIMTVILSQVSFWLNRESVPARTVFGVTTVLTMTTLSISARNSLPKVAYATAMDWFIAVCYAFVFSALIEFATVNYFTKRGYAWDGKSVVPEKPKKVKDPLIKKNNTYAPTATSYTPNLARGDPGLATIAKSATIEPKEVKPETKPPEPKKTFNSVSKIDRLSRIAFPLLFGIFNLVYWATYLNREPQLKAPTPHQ
D(1A) dopamine receptor, sequence (P21728 whole entry): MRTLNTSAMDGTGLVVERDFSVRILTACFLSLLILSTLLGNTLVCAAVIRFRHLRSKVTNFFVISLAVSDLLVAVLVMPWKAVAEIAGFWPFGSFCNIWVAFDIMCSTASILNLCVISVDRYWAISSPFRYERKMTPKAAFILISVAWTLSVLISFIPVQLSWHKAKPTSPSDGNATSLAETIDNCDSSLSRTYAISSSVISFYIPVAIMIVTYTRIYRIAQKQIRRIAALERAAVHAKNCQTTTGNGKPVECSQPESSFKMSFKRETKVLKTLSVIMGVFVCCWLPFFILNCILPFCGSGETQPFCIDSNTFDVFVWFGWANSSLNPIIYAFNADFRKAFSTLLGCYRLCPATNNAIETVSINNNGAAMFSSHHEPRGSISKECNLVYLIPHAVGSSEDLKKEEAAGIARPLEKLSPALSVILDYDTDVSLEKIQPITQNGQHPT
Histamine H1 receptor, sequence (P35367 whole entry): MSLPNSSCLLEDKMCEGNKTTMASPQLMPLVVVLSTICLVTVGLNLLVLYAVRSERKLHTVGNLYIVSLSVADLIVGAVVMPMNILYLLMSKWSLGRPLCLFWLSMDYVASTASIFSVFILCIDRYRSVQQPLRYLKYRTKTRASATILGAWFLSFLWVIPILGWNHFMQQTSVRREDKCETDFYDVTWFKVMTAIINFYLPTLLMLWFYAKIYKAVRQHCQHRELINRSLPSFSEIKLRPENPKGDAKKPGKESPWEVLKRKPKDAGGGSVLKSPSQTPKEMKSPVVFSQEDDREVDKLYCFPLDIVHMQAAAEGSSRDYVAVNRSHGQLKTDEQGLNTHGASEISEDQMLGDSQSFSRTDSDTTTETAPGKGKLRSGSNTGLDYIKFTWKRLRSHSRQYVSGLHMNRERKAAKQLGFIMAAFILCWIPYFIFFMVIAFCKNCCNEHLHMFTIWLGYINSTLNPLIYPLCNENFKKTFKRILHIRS
Neuronal acetylcholine receptor subunit alpha-3, sequence (P32297 whole entry): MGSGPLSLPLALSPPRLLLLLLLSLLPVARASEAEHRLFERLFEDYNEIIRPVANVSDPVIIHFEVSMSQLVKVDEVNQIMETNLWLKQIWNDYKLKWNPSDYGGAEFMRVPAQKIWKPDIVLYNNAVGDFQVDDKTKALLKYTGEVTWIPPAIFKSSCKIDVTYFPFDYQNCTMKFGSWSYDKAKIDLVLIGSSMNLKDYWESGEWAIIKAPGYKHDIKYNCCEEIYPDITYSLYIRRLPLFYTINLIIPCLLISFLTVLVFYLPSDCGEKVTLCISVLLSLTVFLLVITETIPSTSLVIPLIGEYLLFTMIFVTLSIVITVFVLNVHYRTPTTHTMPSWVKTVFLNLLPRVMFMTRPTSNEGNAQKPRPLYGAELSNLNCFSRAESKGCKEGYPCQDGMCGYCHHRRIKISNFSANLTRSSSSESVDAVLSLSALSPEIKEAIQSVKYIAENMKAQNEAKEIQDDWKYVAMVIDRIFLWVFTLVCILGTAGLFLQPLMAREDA

Cc1ccc(Cn2nc(C(=O)NC3C(C)(C)C4CC[C@@]3(C)C4)cc2-c2ccc(Cl)c(C)c2)cc1 (stereo not given in full) [N-(1,3,3-trimethylbicyclo(2.2.1)heptan-2-yl)-5-(4-chloro-3-methylphenyl)-1-(4-methylbenzyl)pyrazole-3-carboxamide]
> 10 µM: all assays above
